Assay results from patent US20240131004A1, “FUNCTIONALIZED 1,3-BENZENE DIOLS AND THEIR METHOD OF USE FOR THE TREATMENT OF INFLAMMATION AND PAIN” (KANNALIFE SCIENCES, INC., priority 2021, published 2024).
Entries after “also recorded” stand apart in the source; their conditions may differ.

Columns and labels:
[1] = test system: dorsal root ganglion (DRG) cultures; assay: Alamar Blue cellular viability in DRG cultures, reversal of paclitaxel toxicity; type: cell-based, rat
Description: (§1) At the conclusion of each experiment, sister cultures to those assessed by image analysis were evaluated with either a fluorescent dye-based assays for neuronal viability (6-carboxyfluorescein diacetate, CFDA) or with viability dye Alamar Blue. The preferred dye was Alamar Blue as this assay of viability could be conducted and then the dye washed off the cultures for subsequent fixation and follow-up immunocytochemical assays. […] In addition, a portion of the reductive conversion of resazurin to the highly fluorescent resorufin in the Alamar Blue reagent is attributable to the action of mitochondrial reductases. Because of the need for enhanced sensitivity, the Alamar Blue assay was predominantly used for these studies. Similar results in assessing pharmacological responses were obtained with both assays (see Brenneman et al, 2019).
On every plate, wells without cells were used to provide a blank reading that was used to subtract background fluorescence. For the Alamar Blue viability assay, 10 ul of the dye was added directly to the culture well that contained 100 ul of nutrient medium (Ivanov et al., 2016). Incubation times with the dye ranged from 1-5 hrs., depending on the experimental goals. Fluorescence was measured at an excitation of 530 nm and an emission of 590 on a Cytofluor plate reader.
Referring to FIG. 1, cellular viability, as measured with the viability dye Alamar Blue, is shown with relative fluorescence units (RFU) in dorsal root ganglion (DRG) cultures after treatment with 3 μM paclitaxel for 8 hours followed by 16 hours treatment with various concentrations of KLS-13019. Reference lines are provided to depict the RFU levels for control cultures (medium dash) and cultures pre-treated only with 3 μM paclitaxel (dash-dot-dash) for eight hours. […] To confirm, all treated cultures were continuously exposed to paclitaxel throughout the 24-hour duration of the experiment. […] Each value is the mean of 6 determinations.

[2] = test system: interleukin-1β (IL-1β); assay: Interleukin-1β immunoreactive area in cell bodies and neurites of DRG neurons, paclitaxel reversal paradigm; type: cell-based, rat
Description: (§2) The GPR55 antibody was obtained from abcam. […] The secondary antibodies were obtained from Life Technologies.
(§3) Responses of interleukin-1β (IL-1β) immunoreactive (IR) areas (μ^2) in cell bodies (open circles) and neurites (closed circles) of rat DRG neurons from dissociated cultures are shown in FIG. 4 after pre-treatment with 3 μM paclitaxel for 8 hours followed by 16 hours treatment with various concentrations of KLS-13019. Reference lines are provided to depict the average cell body IL-1β area (medium dash) and neurites IL-1β (dash-dot-dash) from control cultures. The zero-concentration data point on both curves depicts values for cultures treated only with 3 μM paclitaxel. […] To confirm, all treated cultures were continuously exposed to paclitaxel throughout the 24-hour duration of the experiment. […] Each value is the mean of 8 determinations. […] All assays were conducted by high content fluorescence imaging (Brenneman et al., 2018 and 2019).

[3] = test system: cultures of the central and peripheral nervous system; conditions: Kinney 2016; Brenneman 2018, 2019; US 9,611,213; US 10,004,722; cited from earlier work
[4] = biological target: T1, human GPR55 (Homo sapiens, UniProt Q9Y2T6); assay: PathHunter β-arrestin assay, human GPR55 in CHO-K1 cell line; type: cell-based
T1 construct: host or cells: CHO-K1
Description: In this assay, agonist-induced activation of GPR55 stimulates binding of β-arrestin to the Pro-link-tagged GPCR and forces complementation of two enzyme fragments, resulting in the formation of an active β-galactosidase enzyme. This interaction leads to an increase in enzyme activity that can be measured using chemiluminescent PathHunter detection reagents. For our application, the GPR55 agonist lysophosphatidylinositol (LPI) was tested from 0.1 nM to 30 μM to increase the relative luminescent signal relative to that of control. […] For the GPR55 antagonism assay, KLS-13019 concentrations ranging from 0.1 nM to 30 μM were tested in the presence of 16 μM LPI. Concentrations of KLS-13019 ranging from 0.1 nM to 30 μM were tested alone for possible effects of agonistic activity on β-arrestin.
A PathHunter β-arrestin assay is shown in FIG. 8 that provides a measure of an antagonist mode assessment of KLS-13019 with a human GPR55 model system (Eurofins). To measure the β-arrestin response to a GPR55 agonist, various concentrations of lysophosphatidylinositol (LPI) were used as shown in the closed circles. […] Based on these findings, 16 μM LPI was incubated with various concentrations of KLS-13019 to test for antagonistic properties (closed inverted triangles). […] All assays were conducted with an N=10.

[5] = test system: NLRP3; assay: Neuritic NLRP3 immunoreactive spot area in hippocampal neurons, LPIA reversal paradigm; type: cell-based, rat
Text: Tissue was dissociated with a papain-based kit from Worthington Biochemical Corporation (Lakewood, NJ).
To assess all antibody-based assays, immunocytochemical methods were employed. The goals for these assays included: 1) to assess the immunoreactive area of our molecular targets (IL-1β, IL-6, GPR55, NLRPA3) with their respective primary antibodies and distinctively labeled secondary antibodies; and 2) to compare the relative responses in both neuronal cell bodies and neurites. Prior to fixation, growth medium was removed and the wells were rinsed one time with 100 μL of DPBS (37° C.). This warm rinse is particularly important to maintain structural stability of neurites. After removal of the DPBS, cultures were fixed for 20 min at room temperature with 50 μL/well of 3.5% formaldehyde (Sigma-Aldrich: 252549) in warm (37° C.) DPBS that contained 5.5 μg/mL of Hoechst 33342 dye (Invitrogen: H3570) to label cell nuclei. After removal of the fixative, the cultures were rinsed twice with 100 μL of DPBS and then a permeabilization/blocking buffer containing 5% normal goat serum and 0.3% triton-X100 in DPBS was added to the cultures for 10 min. After removal of the blocking buffer, the cultures were rinsed twice with 100 μL of DPBS and then primary antibodies were added for one-hour incubation at room temperature. Neurons were identified with antiserum to type III beta tubulin (tuj 1) to measure changes in all neuronal parameters. The primary antiserum employed was rabbit anti-rat obtained from Sigma-Aldrich (T2200) and used at 1:200 dilution. The secondary was an Alexa Fluor 488-conjugated Fab fragment of goat anti-rabbit IgG obtained from Life Technologies (A11070) used at 1:600.

[6] = test system: hippocampal cultures; assay: Alamar Blue cellular viability in hippocampal cultures, reversal of LPIA toxicity; type: cell-based, rat
Text: Because the scope of the anti-inflammatory actions of the 1,3-benzene diols included the central nervous system as well, hippocampal cultures were also employed as they express both mNCX-1 and GPR55, the two targets that mediate protection and inflammation, respectively. […] Poly-L-lysine-coated plates (BD Biosciences, Franklin Lakes, NJ) were used because of the preferential adherence and survival of neurons on this matrix support.
as §1, with “Similar results in assessing pharmacological responses were obtained with both assays (see Brenneman et al, 2019).” left out
On every plate, wells without cells were used to provide a blank reading that was used to subtract background fluorescence. […] Fluorescence was measured at an excitation of 530 nm and an emission of 590 on a Cytofluor plate reader. […]

[7] = test system: GPR55; assay: Neuritic GPR55 immunoreactive area in DRG cultures, 6 h co-treatment with LPIA; type: cell-based, rat
Text: Because of the recognized importance of sensory neurons in DRG to transmitting peripheral nociception (Krames, 2014) and the reported accumulation of paclitaxel in DRG from models of CIPN (Duggett et al., 2016), the preparation of choice for the in vitro studies to study protection and anti-inflammation was dissociated cultures from rat DRG. DRG cultures derived from embryonic day 18 rats were employed as the primary assay system to study KLS-13019-properties. In brief, DRG were obtained commercially through Brain Bits (Springfield, IL) and cultures prepared with slight modifications to methods previously described (Brenneman et al., 2019). Tissue was dissociated with a papain-based kit from Worthington Biochemical Corporation (Lakewood, NJ). The DRG cells were plated at low density (10,000 cells/well) in a 96-well format and maintained in serum-free medium consisting of Neurobasal Medium supplemented with B27, GlutaMAX (Gibco) and 25 ng/ml Nerve Growth Factor. Poly-D-lysine coated plates (BD Biosciences, Franklin Lakes, NJ) were employed for this culture system. Prior to the initiation of experiments between days 5 and 9 in vitro, a complete change of medium was performed in a working volume of 100 μL.
To assess all antibody-based assays, immunocytochemical methods were employed. The goals for these assays included: 1) to assess the immunoreactive area of our molecular targets (IL-1β, IL-6, GPR55, NLRPA3) with their respective primary antibodies and distinctively labeled secondary antibodies; and 2) to compare the relative responses in both neuronal cell bodies and neurites. Prior to fixation, growth medium was removed and the wells were rinsed one time with 100 μL of DPBS (37° C.). This warm rinse is particularly important to maintain structural stability of neurites. After removal of the DPBS, cultures were fixed for 20 min at room temperature with 50 μL/well of 3.5% formaldehyde (Sigma-Aldrich: 252549) in warm (37° C.) DPBS that contained 5.5 μg/mL of Hoechst 33342 dye (Invitrogen: H3570) to label cell nuclei. […]

[8] = test system: GPR55; assay: Cell body GPR55 immunoreactive area in DRG neurons, paclitaxel reversal paradigm, high content imaging; type: cell-based, rat
Description: as §2
Responses of cell body GPR55 immunoreactive areas (μ^2) of neurons from dorsal root ganglion (DRG) cultures are shown in FIG. 2 after pretreatment with 3 μM paclitaxel for 8 hours followed by 16 hours treatment with various concentrations of KLS-13019. Reference lines are provided to depict the average cell body GPR55 area for control cultures (medium dash) and that of cultures pre-treated only with 3 μM paclitaxel (dash-dot-dash) for eight hours. […] Each value is the mean of 8 determinations. […] All assays were conducted by high content fluorescence imaging (Brenneman et al., 2018 and 2019).

[9] = test system: interleukin-6 (IL-6); assay: Interleukin-6 immunoreactive area in cell bodies and neurites of DRG neurons, paclitaxel reversal paradigm; type: cell-based, rat
Description: as §2
as §3, with “Referring to FIG. 3, responses” for “Responses”, “interleukin-6 (IL-6)” for “interleukin-1β (IL-1β)”, “shown” for “shown in FIG. 4”, “pretreatment” for “pre-treatment”, “KLS -13019.” for “KLS-13019.”, “IL-6” for “IL-1β”

[10] = 3 μM paclitaxel 8 h, then 16 h treatment

T1 sequence (Q9Y2T6 whole entry): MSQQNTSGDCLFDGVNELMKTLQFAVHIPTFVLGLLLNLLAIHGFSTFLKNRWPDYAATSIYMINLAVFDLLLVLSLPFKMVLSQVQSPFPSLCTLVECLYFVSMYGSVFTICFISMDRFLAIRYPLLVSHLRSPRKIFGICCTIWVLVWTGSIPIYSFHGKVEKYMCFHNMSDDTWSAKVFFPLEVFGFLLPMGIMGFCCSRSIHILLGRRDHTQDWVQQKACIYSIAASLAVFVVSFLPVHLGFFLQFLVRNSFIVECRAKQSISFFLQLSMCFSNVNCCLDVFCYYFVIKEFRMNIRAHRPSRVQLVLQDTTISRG

C=C(C)[C@@H]1CCC(C)=C[C@H]1c1c(O)cc(CC2CN(C(C)=O)C2)cc1O [KLS-13019, 1-(3-(3,5-dihydroxy-4-((1R,6R)-3-methyl-6-(prop-1-en-2-yl)cyclohex-2-enyl)benzyl)azetidin-1-yl)ethenone]
Protection of DRG cells from paclitaxel toxicity (efficacy) ([1]; 3 μM paclitaxel 8 h pre-treatment, then 16 h treatment, relative to control cultures): fully protect
EC50 ([1]; Rattus norvegicus, read-out: EC50 in reversing previously established paclitaxel toxicity (Alamar Blue)): 0.2 nM
Reversal of paclitaxel-induced increase in IL-1β IR area in cell bodies and neurites (efficacy) [2, 10]: fully restored to the average area of control cultures
IC50 ([2]; Rattus norvegicus, DRG neuron, read-out: IC50 in reversing previously established increases in IL-1β IR area): 0.3 nM
Effect on oxidative stress and nerve cell damage in previous studies [3]: prevent oxidative stress and nerve cell damage
Agonist activity on β-arrestin, compound alone ([4]; 0.1 nM to 30 μM tested alone): no detectible agonist activity; also recorded: no detectible increases in β-arrestin signal
Antagonism of LPI-mediated increases in β-arrestin signal ([4]; 30 μM KLS-13019 in presence of 16 μM LPI, N=10): completely blocked
NLRP3 spot areas compared with control cultures (efficacy of reversal) ([5]; 1 nM KLS-13019, equimolar to LPIA): not different from that of control cultures
IC50 ([5]; Rattus norvegicus, Hippocampal neuron, 4 h, read-out: IC50 of decrease in neuritic NLRP3 area): 0.129 ± 0.043 nM
Protection of hippocampal cells from LPIA toxicity (efficacy) ([6]; 1 nM LPIA 4 h, then 4 h treatment, relative to control cultures): fully protect
EC50 ([6]; Rattus norvegicus, 4 h, read-out: EC50 in reversing previously established LPIA toxicity (Alamar Blue)): 0.4 nM
IC50 ([7]; Rattus norvegicus, 6 h, read-out: IC50 in preventing increases in GPR55 area): 0.107 ± 0.019 nM
Effect on LPIA-induced increase in neuritic GPR55 ([7]; co-treatment with 1 nM LPIA, 6 hours): blocked
Reversal of paclitaxel-induced increase in cell body GPR55 area (efficacy) [8, 10]: fully returned to the average area of control cultures
EC50 ([8]; Rattus norvegicus, DRG neuron, read-out: EC50 in reversing previously established increases in GPR55 area): 2.31 nM
Reversal of paclitaxel-induced increase in IL-6 IR area in cell bodies and neurites (efficacy) [9, 10]: fully returned to the average area of control cultures
IC50 ([9]; Rattus norvegicus, DRG neuron, read-out: IC50 in reversing previously established increases in IL-6 IR area): 0.3 nM

CC(=O)O[C@H]1C(=O)[C@@]2(C)[C@H]([C@H](OC(=O)c3ccccc3)[C@]3(O)C[C@H](OC(=O)[C@H](O)[C@@H](NC(=O)c4ccccc4)c4ccccc4)C(C)=C1C3(C)C)[C@]1(OC(C)=O)CO[C@@H]1C[C@@H]2O [paclitaxel, reference compound]
Effect of paclitaxel on cellular viability of DRG cultures ([1]; 3 μM paclitaxel): toxicity
Effect of paclitaxel on IL-1β IR area in cell bodies and neurites ([2]; 3 μM paclitaxel, DRG neurons): increases in IL-1β (IR) area
Effect of paclitaxel on cell body GPR55 immunoreactive area ([8]; 3 μM paclitaxel, DRG cultures): increases in GPR55 area
Effect of paclitaxel on IL-6 IR area in cell bodies and neurites ([9]; 3 μM paclitaxel, DRG neurons): increases in IL-6 (IR) area
